Columns and labels:
[1] = target: Tb-labeled inactive PDGFRβ (Homo sapiens (Human), UniProt P09619); experiment: PDGFRβ LanthaScreen Assay; assay type: binding; conditions: read-out: PDGFR Lantha IC50
[2] = target: VEGFR2, unphosphorylated (Homo sapiens (Human), UniProt P35968); experiment: VEGFR ADP GLO Assay; assay type: biochemical
[3] = target: His6-TEV-PDGFRβ (557-1016) (Homo sapiens (Human), UniProt P09619); experiment: PDGFRβ HTRF Assay; assay type: biochemical; conditions: read-out: PDGFR HTRF IC50
His6-TEV-PDGFRβ (557-1016), sequence (P09619 557-1016): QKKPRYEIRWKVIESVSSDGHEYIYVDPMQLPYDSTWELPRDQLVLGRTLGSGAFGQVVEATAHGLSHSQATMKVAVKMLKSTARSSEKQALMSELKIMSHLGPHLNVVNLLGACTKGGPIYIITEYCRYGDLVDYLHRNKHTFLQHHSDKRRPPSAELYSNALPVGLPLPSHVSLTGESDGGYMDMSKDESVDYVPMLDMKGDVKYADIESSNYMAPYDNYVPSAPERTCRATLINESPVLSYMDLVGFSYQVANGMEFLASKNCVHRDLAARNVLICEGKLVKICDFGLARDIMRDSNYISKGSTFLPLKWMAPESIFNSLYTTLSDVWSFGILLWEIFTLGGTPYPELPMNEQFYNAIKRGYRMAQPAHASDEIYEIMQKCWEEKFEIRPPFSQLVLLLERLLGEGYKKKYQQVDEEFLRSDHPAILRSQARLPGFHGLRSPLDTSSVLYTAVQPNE
In short: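 HTRF KinEASE-TK readout (665/620 nm ratio) of TK-biotin substrate phosphorylation by His-tagged PDGFRβ kinase domain. Enzyme and inhibitor preincubated 30 min, then ATP/substrate added for 3 h at room temperature before 60 min EDTA quench/detection.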

VEGFR2, unphosphorylated, sequence (P35968 20-1356): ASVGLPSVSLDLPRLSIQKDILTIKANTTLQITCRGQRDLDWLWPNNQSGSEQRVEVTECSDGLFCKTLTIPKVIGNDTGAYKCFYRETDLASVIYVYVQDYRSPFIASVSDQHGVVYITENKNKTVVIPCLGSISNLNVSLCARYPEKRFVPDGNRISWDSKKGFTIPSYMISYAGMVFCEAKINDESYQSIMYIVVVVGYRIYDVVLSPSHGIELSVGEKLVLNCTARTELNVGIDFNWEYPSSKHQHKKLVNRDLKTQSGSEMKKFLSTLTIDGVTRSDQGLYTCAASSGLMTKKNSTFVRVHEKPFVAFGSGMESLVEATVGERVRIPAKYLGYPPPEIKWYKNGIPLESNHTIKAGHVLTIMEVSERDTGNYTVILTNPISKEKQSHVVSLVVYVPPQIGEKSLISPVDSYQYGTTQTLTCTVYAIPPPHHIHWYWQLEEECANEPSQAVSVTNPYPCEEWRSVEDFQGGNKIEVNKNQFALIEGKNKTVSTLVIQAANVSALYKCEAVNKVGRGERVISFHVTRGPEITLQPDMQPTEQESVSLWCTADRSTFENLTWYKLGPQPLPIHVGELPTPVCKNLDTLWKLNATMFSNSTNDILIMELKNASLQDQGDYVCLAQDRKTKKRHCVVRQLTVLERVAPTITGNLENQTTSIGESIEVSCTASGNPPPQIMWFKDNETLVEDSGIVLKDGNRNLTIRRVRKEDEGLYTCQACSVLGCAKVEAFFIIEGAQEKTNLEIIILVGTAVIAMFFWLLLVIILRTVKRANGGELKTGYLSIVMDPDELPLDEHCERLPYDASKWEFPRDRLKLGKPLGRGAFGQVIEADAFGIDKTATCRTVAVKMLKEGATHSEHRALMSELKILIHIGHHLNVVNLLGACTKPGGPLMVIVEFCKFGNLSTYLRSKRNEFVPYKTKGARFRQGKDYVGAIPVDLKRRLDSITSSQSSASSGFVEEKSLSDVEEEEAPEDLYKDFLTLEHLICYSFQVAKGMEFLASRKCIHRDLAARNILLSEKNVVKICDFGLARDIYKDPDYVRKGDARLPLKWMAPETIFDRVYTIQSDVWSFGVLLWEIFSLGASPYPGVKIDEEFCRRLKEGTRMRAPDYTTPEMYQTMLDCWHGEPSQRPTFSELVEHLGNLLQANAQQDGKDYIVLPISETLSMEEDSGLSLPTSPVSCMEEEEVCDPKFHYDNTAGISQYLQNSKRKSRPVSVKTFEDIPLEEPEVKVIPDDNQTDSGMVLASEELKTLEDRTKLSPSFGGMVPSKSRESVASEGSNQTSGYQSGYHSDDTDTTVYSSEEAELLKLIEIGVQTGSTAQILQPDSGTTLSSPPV
Tb-labeled inactive PDGFRβ, sequence (P09619 33-1106): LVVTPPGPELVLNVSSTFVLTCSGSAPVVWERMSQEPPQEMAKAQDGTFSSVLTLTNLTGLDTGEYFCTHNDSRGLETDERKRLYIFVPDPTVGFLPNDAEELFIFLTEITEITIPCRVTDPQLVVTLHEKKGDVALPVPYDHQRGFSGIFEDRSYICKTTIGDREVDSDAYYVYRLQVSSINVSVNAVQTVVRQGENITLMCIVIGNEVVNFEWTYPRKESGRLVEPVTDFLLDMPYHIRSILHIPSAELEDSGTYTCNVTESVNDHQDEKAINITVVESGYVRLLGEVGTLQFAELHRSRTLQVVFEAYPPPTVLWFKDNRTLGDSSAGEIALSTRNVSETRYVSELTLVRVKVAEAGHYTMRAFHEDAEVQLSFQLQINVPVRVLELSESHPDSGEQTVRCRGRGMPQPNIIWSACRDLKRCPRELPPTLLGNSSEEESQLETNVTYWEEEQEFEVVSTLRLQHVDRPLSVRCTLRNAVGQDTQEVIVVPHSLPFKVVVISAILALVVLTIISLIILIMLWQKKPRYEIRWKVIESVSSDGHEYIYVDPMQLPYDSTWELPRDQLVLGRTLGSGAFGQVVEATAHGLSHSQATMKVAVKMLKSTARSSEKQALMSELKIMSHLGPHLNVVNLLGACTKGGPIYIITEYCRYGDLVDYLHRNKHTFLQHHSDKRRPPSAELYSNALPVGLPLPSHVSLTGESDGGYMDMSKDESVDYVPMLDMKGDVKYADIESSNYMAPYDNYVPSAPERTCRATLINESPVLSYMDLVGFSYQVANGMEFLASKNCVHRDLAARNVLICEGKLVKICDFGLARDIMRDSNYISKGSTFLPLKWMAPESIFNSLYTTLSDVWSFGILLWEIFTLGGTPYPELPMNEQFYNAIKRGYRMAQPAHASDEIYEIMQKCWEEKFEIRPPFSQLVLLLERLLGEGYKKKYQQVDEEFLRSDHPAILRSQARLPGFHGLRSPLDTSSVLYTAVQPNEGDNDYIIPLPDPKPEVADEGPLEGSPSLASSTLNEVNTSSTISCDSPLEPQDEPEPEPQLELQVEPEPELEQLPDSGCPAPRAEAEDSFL

Compound | IC50 [1] | IC50 [2] | IC50 [3]
Cc1ncc(C(=O)NCC2CCCN2C)cc1NC(=O)c1cnn2cc(-c3cnn4c3CCC4)sc12 (stereo not drawn) [Example 469, 2-(5,6-dihydro-4H-pyrrolo[1,2-b]pyrazol-3-yl)-N-(2-methyl-5-(((1-methylpyrrolidin-2-yl)methyl)carbamoyl)pyridin-3-yl)pyrazolo[5,1-b]thiazole-7-carboxamide] | 5.5 nM | > 7500 nM | 0.3 nM
Cc1ncc(NC(=O)CN2CC(C)(C)C2)cc1NC(=O)c1cnn2cc(-c3cnn4c3COCC4)sc12 [Example 476, 2-(6,7-dihydro-4H-pyrazolo[5,1-c][1,4]oxazin-3-yl)-N-(5-(2-(3,3-dimethylazetidin-1-yl)acetamido)-2-methylpyridin-3-yl)pyrazolo[5,1-b]thiazole-7-carboxamide] | 1.7 nM | > 7500 nM | 0.2 nM
COCCn1cc(-c2cn3ncc(C(=O)Nc4cc(NC(=O)C5(CN6CCC[C@@H]6C)CC5)cnc4C)c3s2)cn1 [Example 452, (S)-2-(1-(2-methoxyethyl)-1H-pyrazol-4-yl)-N-(2-methyl-5-(1-((2-methylpyrrolidin-1-yl)methyl)cyclopropanecarboxamido)pyridin-3-yl)pyrazolo[5,1-b]thiazole-7-carboxamide] | 376 nM | > 7500 nM | 12.1 nM
CCCNCC(=O)Nc1cnc(C)c(NC(=O)c2cnn3cc(-c4cnn5c4CCC5)sc23)c1 [Example 456, 2-(5,6-dihydro-4H-pyrrolo[1,2-b]pyrazol-3-yl)-N-(2-methyl-5-(2-(propylamino)acetamido)pyridin-3-yl)pyrazolo[5,1-b]thiazole-7-carboxamide] | 4.7 nM | > 7500 nM | 0.4 nM
Cc1ncc(NC(=O)CN2CCC23CCC3)cc1NC(=O)c1cnn2cc(-c3cnn4c3COCC4)sc12 [Example 475, N-(5-(2-(1-azaspiro[3.3]heptan-1-yl)acetamido)-2-methylpyridin-3-yl)-2-(6,7-dihydro-4H-pyrazolo[5,1-c][1,4]oxazin-3-yl)pyrazolo[5,1-b]thiazole-7-carboxamide] | 1.4 nM | > 7500 nM | 0.2 nM
Cc1ncc(NC(=O)C[C@H]2CCN(C(C)C)C2)cc1NC(=O)c1cnn2cc(-c3cnn(C)c3)sc12 [Example 465, (R)—N-(5-(2-(1-isopropylpyrrolidin-3-yl)acetamido)-2-methylpyridin-3-yl)-2-(1-methyl-1H-pyrazol-4-yl)pyrazolo[5,1-b]thiazole-7-carboxamide] | 73.9 nM | > 7500 nM | 3 nM
COCCn1cc(-c2cn3ncc(C(=O)Nc4cc(NC(=O)CCN5CCCC5(C)C)cnc4C)c3s2)cn1 [Example 41, N-(5-(3-(2,2-dimethylpyrrolidin-1-yl)propanamido)-2-methylpyridin-3-yl)-2-(1-(2-methoxyethyl)-1H-pyrazol-4-yl)pyrazolo[5,1-b]thiazole-7-carboxamide] | 4.7 nM | > 7500 nM | 0.43 nM

— patent US20240109917A1 (ACTELION PHARMACEUTICALS LTD, priority 2020, published 2024)
